Earlier results as cited in patent US20160199437A1, “THERAPEUTIC COMPOSITIONS INCLUDING IRON CHELATORS AND USES THEREOF” (priority 2015, published 2016).

Tested on: several mammalian cell types
Conditions: energy-independent manner; cited from earlier work

2′,6′-Dmt-D-Arg-Phe-Lys-NH2
penetration of the plasma membrane: readily penetrates the plasma membrane
